From patent US4228288A, “Certain substituted 3,4,5,6-tetrahydropyridinium salt intermediates” (Eli Lilly and Company, priority 1979, dated 1980)
Read-outs that look alike come from different tables or passages of the source.

Legend:
[1] = standard mouse writhing assay (inhibition of induced writhing); assay type: in vivo
From the text: (§1) The analgesic activity of a number of compounds provided by this invention has been determined in the standard rat-tail jerk assay and the mouse writhing assay. The results in the mouse writhing assay are presented as the effective dose in mg./kg. of the tested compound required to inhibit induced writhing in the test animals by fifty percent (ED50). Results are presented in Column II for both subcutaneous (S.C.) and oral (p.o.) administration of the test compound recited in Column I.

[2] = standard rat-tail jerk assay (delay of response to heat stimulus); assay type: in vivo; details: subcutaneous, heat sensation
From the text: as §1
Column III presents the effects of the claimed compounds on rats subjected to a heat sensation. The compounds recited in column I were administered subcutaneously to the test animals. The test results are reported as the minimum effective dose (MED) of compound in mg./kg. needed to delay response to the pain stimulus by one second compared to control animals.

[3] = oral, read-out: Mouse Writhing ED50 p.o. (dose required to inhibit induced writhing by fifty percent)
[4] = sc, subcutaneous, read-out: Mouse Writhing ED50 s.c. (dose required to inhibit induced writhing by fifty percent)

SMILES | ED50 [1, 3] [mg/kg] | ED50 [1, 4] [mg/kg] | Rat Tail Jerk MED 1 sec. (minimum effective dose to delay response to the pain stimulus by one second compared to control animals) [2] [mg/kg]
CC1CC(C)(c2cccc(O)c2)C(C)CN1C (stereo not drawn) [1,2,4,5-Tetramethyl-4-(3-hydroxyphenyl)piperidine] | 9.2 | 1.25 | 1
COc1cccc(C2(C)CC(C)N(C)CC2C)c1 (stereo not drawn) [1,2,4,5-Tetramethyl-4-(3-methoxyphenyl)piperidine] | 16 | 19 | 10
CCOC(=O)C1(c2ccccc2)CCN(C)CC1 [Meperidine, meperidine, reference compound] | 21 | 2.8 | 3.0
CCCC1(c2cccc(OC)c2)CC(C)N(C)CC1C (stereo not drawn) [1,2,5-Trimethyl-4-n-propyl-4-(3-methoxyphenyl)-piperidine] | 11.5 | 4 | 2
CCCC1(c2cccc(O)c2)CC(C)N(C)CC1C (stereo not drawn) [1,2,5-trimethyl-4-n-propyl-4-(3-hydroxyphenyl)piperidine] | 16 | 29 | 20
